Reference: PubChem BioAssay (NCI)
Where “and” joins values, the source holds several entries; their conditions need not be identical. Equal values may be shown once.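 Assay format: 96-well plates, 48-hour exposure. At the GI50, growth is halved. TGI is the concentration that stops growth completely.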

How the values were obtained:
Assay in all cases: DTP human tumour cell line panel, 48 h
A549 NSCLC = tested on: A549 NSCLC
BT-549 breast = tested on: BT-549 breast
HCT-15 colon = tested on: HCT-15 colon
MDA-MB-435 = tested on: MDA-MB-435
SF-295 CNS = tested on: SF-295 CNS
SK-MEL-28 melanoma = tested on: SK-MEL-28 melanoma
SK-MEL-5 melanoma = tested on: SK-MEL-5 melanoma
SK-OV-3 ovarian = tested on: SK-OV-3 ovarian
SNB-75 CNS = tested on: SNB-75 CNS
UACC-257 melanoma = tested on: UACC-257 melanoma

SMILES | GI50 (A549 NSCLC) | TGI (A549 NSCLC) | GI50 (BT-549 breast) | TGI (BT-549 breast) | GI50 (HCT-15 colon) | TGI (HCT-15 colon) | GI50 (MDA-MB-435) | TGI (MDA-MB-435) | GI50 (SF-295 CNS) | TGI (SF-295 CNS) | GI50 (SK-MEL-28 melanoma) | TGI (SK-MEL-28 melanoma) | GI50 (SK-MEL-5 melanoma) | TGI (SK-MEL-5 melanoma) | GI50 (SK-OV-3 ovarian) | TGI (SK-OV-3 ovarian) | GI50 (SNB-75 CNS) | TGI (SNB-75 CNS) | GI50 (UACC-257 melanoma) | TGI (UACC-257 melanoma)
C#CCOC(=O)/C=C/C(=O)Oc1ccc2c(C)cc(=O)oc2c1 | > 100 µM | > 100 µM | > 100 µM | > 100 µM | > 100 µM | > 100 µM | > 100 µM | > 100 µM | > 100 µM | > 100 µM | > 100 µM | > 100 µM | > 100 µM | > 100 µM | > 100 µM | > 100 µM | > 100 µM | > 100 µM | > 100 µM | > 100 µM
O=C(O)CCSC(=O)Nc1cccc2ccccc12 | – | > 100 µM | – | – | – | > 100 µM | – | – | – | > 100 µM | – | > 100 µM | – | > 100 µM | – | > 100 µM | – | > 100 µM | – | > 100 µM
C1C[OH+]CCNCC[OH+]CC[OH+]CCN1.N.[Cl-].[Pt+4] | 51.3 µM | > 100 µM | – | – | 40.4 µM | > 100 µM | – | – | 49 µM | > 100 µM | 49.5 µM | > 100 µM | 35.5 µM | > 100 µM | 25.1 µM | 96 µM | 24.2 µM | > 100 µM | 78.8 µM | > 100 µM
COc1cc2c(c(OC)c1OC)-c1c(c3ccc([N+](=O)[O-])cc3c(=O)n1CCCBr)C2=O | 62.8 µM | > 100 µM | 35.8 µM | 97.5 µM | – | – | > 100 µM | > 100 µM | 24.2 µM | > 100 µM | > 100 µM | > 100 µM | 19.8 µM | 65.8 µM | > 100 µM | > 100 µM | 80 µM | > 100 µM | > 100 µM | > 100 µM
NNc1nc2ccccc2o1 | – | > 100 µM | – | > 100 µM | – | > 100 µM | – | > 100 µM | – | – | – | > 100 µM | – | > 100 µM | – | – | – | > 100 µM | – | > 100 µM
O=C1c2cc3c(cc2-c2c1c1ccc(F)cc1c(=O)n2C[C@H](O)[C@H](O)[C@H](O)CO)OCO3 | – | – | 0.149 µM | 1.05 µM | 0.199 µM | 0.724 µM | 0.174 µM | 0.409 µM | 0.0624 µM | 0.513 µM | 0.282 µM | 1.51 µM | 0.141 µM | 0.277 µM | 0.186 µM | 0.694 µM | – | – | – | –
COc1ccccc1NC(=O)C1=C(C)NC(C)=C(C(=O)Nc2ccccc2OC)C1c1ccccc1Cl | – | > 100 µM | – | – | – | > 100 µM | – | – | – | > 100 µM | – | > 100 µM | – | > 100 µM | – | > 100 µM | – | > 100 µM | – | > 100 µM
O=c1cc(-c2ccccc2)oc2c1ccc1ccccc12 | 23.8 µM | > 100 µM | 21 µM | 55.8 µM | 30 µM | > 100 µM | 30 µM | > 100 µM | – | – | 29.3 µM | > 100 µM | 20.2 µM | 65.3 µM | 19.3 µM | 54.1 µM | 11.6 µM | 45.9 µM | 54.8 µM | > 100 µM
CC(=O)NCc1c(C(N)=O)ncn1Cc1ccccc1 | – | > 100 µM | – | – | – | > 100 µM | – | – | – | > 100 µM | – | > 100 µM | – | > 100 µM | – | > 100 µM | – | > 100 µM | – | > 100 µM
O=[N+]([O-])c1cc(I)cc(/C=N/NS(=O)(=O)c2ccc(Cl)cc2)c1O | – | > 100 µM | – | – | – | 38.7 µM | – | – | – | 60.6 µM | – | 73.8 µM | – | 36.9 µM | – | 65 µM | – | 61.2 µM | – | 53.9 µM
COc1ccc(-c2cc(=O)c3cc(C)c(C)c(C(=O)O)c3o2)cc1 | – | > 100 µM | – | – | – | > 100 µM | – | – | – | > 100 µM | – | > 100 µM | – | – | – | > 100 µM | – | > 100 µM | – | > 100 µM
CCOC(=O)CNC(=O)OCc1ccccc1 | – | > 100 µM | – | – | – | > 100 µM | – | – | – | > 100 µM | – | > 100 µM | – | – | – | > 100 µM | – | > 100 µM | – | > 100 µM
OCCN(CCO)c1nc(N2CCCCC2)c2nc(N(CCO)CCO)nc(N3CCCCC3)c2n1 | – | > 100 µM | – | – | – | > 100 µM | – | > 100 µM | – | – | – | > 100 µM | – | 41.8 µM | – | – | – | – | – | > 100 µM
O=C(C=Nc1ccccc1S)c1ccco1 | – | 22.4 µM | – | – | – | 27.4 µM | – | – | – | 18.8 µM | – | 30.1 µM | – | 31.7 µM | 3.2 µM | 10.1 µM | 17.7 µM | 31.9 µM | – | 32.1 µM
COc1cc(/C=C2\NC(=O)C3Cc4c(OC)c(C)c(OC)c(OC)c4C2N3C)c(OC)c(C)c1OC (stereo not drawn) | – | > 100 µM | – | – | – | – | – | – | – | > 100 µM | – | > 100 µM | – | > 100 µM | – | > 100 µM | – | > 100 µM | – | > 100 µM
CCOC(=O)c1c(-c2ccc(OC)c(O)c2)c(C#N)c(=S)n(C2OC(COC(C)=O)C(OC(C)=O)C(OC(C)=O)C2OC(C)=O)c1-c1ccccc1 (stereo not drawn) | – | > 100 µM | – | 64 µM | 43.1 µM and > 100 µM | > 100 µM | 31.7 µM and 67.9 µM | 91.6 µM and > 100 µM | – | > 100 µM | 32.5 µM and > 100 µM | > 100 µM | 15.5 µM and > 100 µM | 33.4 µM and > 100 µM | – | – | – | – | 23.4 µM and > 100 µM | 60.8 µM and > 100 µM
CC(=O)OC1=C2CC[C@@H]3C(CC[C@@]4(C)C3CC[C@@H]4OC(C)=O)[C@@]2(C)CC(C#N)C1=O (stereo partly drawn) | – | > 100 µM | – | – | – | > 100 µM | – | – | – | > 100 µM | – | > 100 µM | – | 49.4 µM | – | 48.1 µM | – | 72.9 µM | – | > 100 µM
C/C(CC(C)(C)N1CC1)=N\NC(=O)Nc1cccc2ccccc12 | 3.53 µM | 14.2 µM | – | – | 3.24 µM | 17.4 µM | 6.19 µM | 19.9 µM | 7.01 µM | 35.5 µM | 7.07 µM | 19.8 µM | 3.19 µM | 12.2 µM | – | – | 2.62 µM | 13.8 µM | 4.09 µM | 16.2 µM
CN=C1CN=C(OP(=O)(N2CCOCC2)N2CCOCC2)c2cc(Cl)ccc2N1 | – | > 100 µM | – | – | – | > 100 µM | – | – | – | > 100 µM | – | > 100 µM | – | > 100 µM | – | – | – | > 100 µM | – | > 100 µM
CC[O-].CC[O-].O=C([CH-]C(=O)c1ccccc1)CCCCCCC(=O)[CH-]C(=O)c1ccccc1.[Ti+4] | > 100 µM | > 100 µM | – | – | > 100 µM | > 100 µM | – | – | > 100 µM | > 100 µM | > 100 µM | > 100 µM | > 100 µM | > 100 µM | > 100 µM | > 100 µM | > 100 µM | > 100 µM | > 100 µM | > 100 µM
